For data set [1], the target named is T1, Aurora-B (Homo sapiens, UniProt Q96GD4).
T1 construct: in some cases as full-length kinases, in some cases as truncated fragments; purchased Upstate/Millipore #14-835
Put plainly: Cell-free kinase assay (ALPHA technology), Aurora-B. The format is biochemical. Here is the method: The kinase reaction was stopped by adding 10 μl of the ALPHA bead mix (10 μg/ml, #6760617/PerkinElmer), pre-incubated with anti-phospho PLK antibody (100 pM, #5070, Cell Signaling), in 25 mM Tris, 200 mM NaCl, 100 mM EDTA and 0.3% BSA, and left to stand overnight. The luminiscence was detected the next morning in a Envision instrument (Perkin Elmer). […] 0% controls contained no ATP whereas the 100% controls contained no test substance. The IC50 values were determined with GraphPadPrism.

In data set [2] the target is cRaf-Mek1-Erk2 (Homo sapiens, UniProt P04049+P28482+Q02750). To be noted: read-out: IC50 cRaf-Mek-Erk; at 10 μM ATP. The protocol: The inhibitory effect of the inventive compounds was tested on various human serine/threonine kinases and tyrosine kinases in enzymatic assays. Recombinant human kinases, for example Aurora-B, cRaf-Mek1-Erk2, Erk2, Pim-1, HIPK1, KDR, TrkA, Yes, c-Abl and others were used, in some cases as full-length kinases, in some cases as truncated fragments—but at least consisting of the functional kinase domains. The commercial kinase proteins (Proqinase, Millipore) were used as recombinant fusion proteins with GST (glutathione S-transferase) tag or His tag. Depending on the substrate type, the different kinase reactions were quantified by suitable ALPHA™ beads (PerkinElmer).
The calculation of % inhibition values per substance concentration was done by means of the following formula from the raw data determined in the Envision reader:
(§1) The controls were determined 16 fold. 0% controls contained no ATP whereas the 100% controls contained no test substance. The IC50 values were determined with GraphPadPrism.

For data set [3], the target named is T2, Erk2 (Homo sapiens, UniProt P28482).
T2 construct: in some cases as full-length kinases, in some cases as truncated fragments
Put plainly: Cell-free kinase assay (ALPHA technology), Erk2. The format is biochemical. To be noted: at 10 μM ATP. The protocol:
as §1

The mark [4] stands for this setting: at 10 μM ATP, read-out: IC50 Aurora-B.

The structures appear in SMILES notation. Read-outs that look alike come from different tables or passages of the source.

By IC50 is commonly meant the midpoint of a concentration-inhibition curve. What is called melting point is the temperature of the solid-liquid transition.

Sequence of cRaf-Mek1-Erk2 (P04049 whole entry, the tested form may be a part): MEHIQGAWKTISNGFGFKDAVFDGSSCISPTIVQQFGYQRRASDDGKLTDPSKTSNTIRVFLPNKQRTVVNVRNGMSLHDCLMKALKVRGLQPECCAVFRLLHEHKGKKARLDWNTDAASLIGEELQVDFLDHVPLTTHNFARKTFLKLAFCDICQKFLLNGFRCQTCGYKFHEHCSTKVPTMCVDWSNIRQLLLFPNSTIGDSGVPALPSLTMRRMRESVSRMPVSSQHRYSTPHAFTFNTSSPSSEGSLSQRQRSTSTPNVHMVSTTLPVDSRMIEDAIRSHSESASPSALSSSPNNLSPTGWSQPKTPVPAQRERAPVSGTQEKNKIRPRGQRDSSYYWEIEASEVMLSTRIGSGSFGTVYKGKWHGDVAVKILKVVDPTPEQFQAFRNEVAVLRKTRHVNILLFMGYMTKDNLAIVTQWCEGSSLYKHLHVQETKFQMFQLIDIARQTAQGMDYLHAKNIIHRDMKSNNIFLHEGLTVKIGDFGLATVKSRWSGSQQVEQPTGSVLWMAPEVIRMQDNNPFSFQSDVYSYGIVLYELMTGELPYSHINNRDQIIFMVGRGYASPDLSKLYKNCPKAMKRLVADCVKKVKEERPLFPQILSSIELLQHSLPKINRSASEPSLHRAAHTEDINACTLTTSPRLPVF
Sequence of cRaf-Mek1-Erk2 (Q02750 whole entry, the tested form may be a part): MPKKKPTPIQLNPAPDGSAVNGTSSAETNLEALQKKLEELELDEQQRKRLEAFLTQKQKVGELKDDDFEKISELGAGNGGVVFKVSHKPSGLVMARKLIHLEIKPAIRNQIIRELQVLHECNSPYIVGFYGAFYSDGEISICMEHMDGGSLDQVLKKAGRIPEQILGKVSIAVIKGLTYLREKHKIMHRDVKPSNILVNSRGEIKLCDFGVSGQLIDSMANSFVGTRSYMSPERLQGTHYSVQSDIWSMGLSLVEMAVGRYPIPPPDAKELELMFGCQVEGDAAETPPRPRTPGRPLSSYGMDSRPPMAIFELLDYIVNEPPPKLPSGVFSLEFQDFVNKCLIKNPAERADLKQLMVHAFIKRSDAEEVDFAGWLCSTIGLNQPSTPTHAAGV
Sequence of cRaf-Mek1-Erk2 (P28482 2-360): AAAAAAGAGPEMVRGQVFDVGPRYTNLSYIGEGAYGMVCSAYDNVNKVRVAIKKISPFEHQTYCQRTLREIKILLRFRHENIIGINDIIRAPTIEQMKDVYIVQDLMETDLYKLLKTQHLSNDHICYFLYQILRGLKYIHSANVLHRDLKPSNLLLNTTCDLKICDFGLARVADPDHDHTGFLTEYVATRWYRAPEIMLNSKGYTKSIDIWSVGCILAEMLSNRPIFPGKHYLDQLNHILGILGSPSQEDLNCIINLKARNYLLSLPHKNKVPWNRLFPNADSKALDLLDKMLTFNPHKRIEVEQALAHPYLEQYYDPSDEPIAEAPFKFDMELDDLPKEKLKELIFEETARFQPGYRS
T1 sequence (Q96GD4 whole entry, the tested form may be a part): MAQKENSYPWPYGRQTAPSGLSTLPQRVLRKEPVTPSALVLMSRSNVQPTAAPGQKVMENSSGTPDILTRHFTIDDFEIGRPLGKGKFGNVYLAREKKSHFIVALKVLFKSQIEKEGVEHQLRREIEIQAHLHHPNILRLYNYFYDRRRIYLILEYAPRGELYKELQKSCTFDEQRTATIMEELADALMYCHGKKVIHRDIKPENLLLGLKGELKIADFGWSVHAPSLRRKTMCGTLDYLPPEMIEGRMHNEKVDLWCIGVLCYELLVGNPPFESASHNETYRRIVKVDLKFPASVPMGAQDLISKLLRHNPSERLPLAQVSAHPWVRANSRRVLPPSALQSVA
T2 sequence (P28482 whole entry, the tested form may be a part): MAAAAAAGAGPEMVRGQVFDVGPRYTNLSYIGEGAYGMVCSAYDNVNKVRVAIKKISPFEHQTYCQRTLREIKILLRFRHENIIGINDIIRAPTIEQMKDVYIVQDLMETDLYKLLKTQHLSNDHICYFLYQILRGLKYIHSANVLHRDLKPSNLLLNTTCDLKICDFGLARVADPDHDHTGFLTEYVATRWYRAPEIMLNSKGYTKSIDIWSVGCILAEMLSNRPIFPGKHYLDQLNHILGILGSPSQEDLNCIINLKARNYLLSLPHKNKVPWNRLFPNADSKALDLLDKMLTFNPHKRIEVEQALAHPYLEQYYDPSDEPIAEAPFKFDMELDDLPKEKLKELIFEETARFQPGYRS

In the case of `Cn1cc(-c2cnc3c(NC(=O)NCC(F)(F)F)ccnc3c2)cn1` [Compound 20, 1-[7-(1-Methyl-1H-pyrazol-4-yl)-[1,5]naphthyridin-4-yl]-3-(2,2,2-trifluoro-ethyl)-urea], the melting point was above 300 °C. Besides, in data set [1] (setting [4]), the IC50 was found to be 0.129 µM. Moreover, the 50% inhibitory concentration (IC50) in data set [2] was found to be 27.3 µM. This compound also returned a concentration for half-maximal inhibition (IC50) in data set [3] above 100 µM.

The compound `Cn1cc(-c2cnc3c(NC(=O)NCCCCc4ccccc4)ccnc3c2)cn1` [Compound 21, 1-[7-(1-Methyl-1H-pyrazol-4-yl)-[1,5]naphthyridin-4-yl]-3-(4-phenyl-butyl)-urea] came in with a melting point of 185 to 186 °C. Besides, the concentration for half-maximal inhibition (IC50) in data set [1] (setting [4]) came out at 0.141 µM. Moreover, the 50% inhibitory concentration (IC50) in data set [2] turned out to be 16.9 µM. Moreover, the IC50 in data set [3] is above 31.6 µM.

The compound `Cn1cc(-c2cnc3c(NC(=O)NC4CCCCC4)ccnc3c2)cn1` [Compound 22, 1-Cyclohexyl-3-[7-(1-methyl-1H-pyrazol-4-yl)-[1,5]naphthyridin-4-yl]-urea] displayed a melting point of 200 to 201 °C. The IC50 in data set [1] (setting [4]) came out at 0.354 µM. Besides, in data set [2], the half-inhibitory concentration (IC50) was above 31.6 µM. Also, in data set [3], the IC50 is above 100 µM.

For the compound `Cn1cc(-c2cnc3c(NC(=O)Nc4ccccc4)ccnc3c2)cn1` [Compound 23, 1-[7-(1-Methyl-1H-pyrazol-4-yl)-[1,5]naphthyridin-4-yl]-3-phenyl-urea], the melting point lay in the range of 294 to 295 °C. In data set [1] (setting [4]), the half-maximal inhibitory concentration (IC50) stood at 1.26 µM. For the same compound, the IC50 in data set [2] was above 100 µM. In data set [3], this compound returned a 50% inhibitory concentration (IC50) above 100 µM.

Turning to `Cn1cc(-c2cnc3c(NC(=O)NC4CC(F)(F)C4)ccnc3c2)cn1` [Compound 24, 1-(3,3-Difluoro-cyclobutyl)-3-[7-(1-methyl-1H-pyrazol-4-yl)-[1,5]naphthyridin-4-yl]-urea], the melting point was in the range of 229 to 230 °C. Moreover, the concentration for half-maximal inhibition (IC50) in data set [1] (setting [4]) turned out to be 0.784 µM. Besides, the IC50 in data set [2] came to 26.2 µM. Besides, in data set [3], the IC50 is above 100 µM.

On to `CCCCCCNC(=O)Nc1ccnc2cc(-c3cnn(C)c3)cnc12` [Compound 25, 1-Hexyl-3-[7-(1-methyl-1H-pyrazol-4-yl)-[1,5]naphthyridin-4-yl]-urea], for which the melting point lay within 188 to 189 °C. Besides, the IC50 in data set [1] (setting [4]) was determined as 0.885 µM. Moreover, in data set [2], the IC50 was above 100 µM. This compound showed an IC50 in data set [3] above 100 µM.

`Cn1cc(-c2cnc3c(NC(=O)NCc4ccccc4)ccnc3c2)cn1` [Compound 31, 1-Benzyl-3-[7-(1-methyl-1H-pyrazol-4-yl)-[1,5]naphthyridin-4-yl]-urea] had a melting point of 237 to 238 °C. The concentration for half-maximal inhibition (IC50) in data set [1] (setting [4]) amounted to 0.066 µM. Moreover, the half-inhibitory concentration (IC50) in data set [2] is above 100 µM. Moreover, the IC50 in data set [3] was above 100 µM.

`CCCCNC(=O)Nc1ccnc2cc(-c3cnn(C)c3)cnc12` [Compound 32, 1-Butyl-3-[7-(1-methyl-1H-pyrazol-4-yl)-[1,5]naphthyridin-4-yl]-urea]: the melting point fell in the range of 219 to 220 °C. Moreover, the half-inhibitory concentration (IC50) in data set [1] (setting [4]) is 0.164 µM. Also, the 50% inhibitory concentration (IC50) in data set [2] turned out to be 12.8 µM. In addition, the IC50 in data set [3] was above 31.6 µM.

Compound `Cn1cc(-c2cnc3c(NC(=O)NCCc4ccccc4)ccnc3c2)cn1` [Compound 33, 1-[7-(1-Methyl-1H-pyrazol-4-yl)-[1,5]naphthyridin-4-yl]-3-phenethyl-urea] showed a melting point of 222 to 223 °C. Further, the IC50 in data set [1] (setting [4]) is 0.086 µM. The IC50 in data set [2] worked out at 16.6 µM. Besides, the concentration for half-maximal inhibition (IC50) in data set [3] was above 100 µM.

Turning to `Cn1cc(-c2cnc3c(NC(=O)NC4CCCC4)ccnc3c2)cn1` [Compound 34, 1-Cyclopentyl-3-[7-(1-methyl-1H-pyrazol-4-yl)-[1,5]naphthyridin-4-yl]-urea], the melting point is 207 to 208 °C. For the same compound, the IC50 in data set [1] (setting [4]) was 0.108 µM. In data set [2], the IC50 was found to be 0.676 µM. In data set [3], the half-inhibitory concentration (IC50) stood at 4.08 µM.

As to `O=C(Nc1ccnc2cc(-c3cn[nH]c3)cnc12)NC1CC1` [Compound 35, 1-Cyclopropyl-3-[7-(1H-pyrazol-4-yl)-[1,5]naphthyridin-4-yl]-urea], the melting point lay in the range of 229 to 231 °C. The IC50 in data set [1] (setting [4]) came to 0.085 µM. For the same compound, the IC50 in data set [2] amounted to 4.65 µM. Further, the half-inhibitory concentration (IC50) in data set [3] is above 100 µM.

The compound `O=C(Nc1ccnc2cc(-c3ccsc3)cnc12)NC1CC1` [Compound 36, 1-Cyclopropyl-3-(7-thiophen-3-yl-[1,5]naphthyridin-4-yl)-urea] came in with a melting point of 228 to 229 °C. Also, the IC50 in data set [1] (setting [4]) turned out to be 0.103 µM. Further, the IC50 in data set [2] came to 3.85 µM. Moreover, the IC50 in data set [3] was above 100 µM.

Regarding `O=C(Nc1ccnc2cc(-c3ccnc(F)c3)cnc12)NC1CC1` [Compound 37, 1-Cyclopropyl-3-[7-(2-fluoro-pyridin-4-yl)-[1,5]naphthyridin-4-yl]-urea], the melting point fell in the range of 226 to 229 °C. Besides, the IC50 in data set [1] (setting [4]) is 0.935 µM. In addition, the half-inhibitory concentration (IC50) in data set [2] turned out to be 10.3 µM. Moreover, in data set [3], the IC50 was above 100 µM.

In turn, `O=C(Nc1ccnc2cc(-c3cnn(CCN4CCOCC4)c3)cnc12)NC1CC1` [Compound 38, 1-Cyclopropyl-3-{7-[1-(2-morpholin-4-yl-ethyl)-1H-pyrazol-4-yl]-[1,5]naphthyridin-4-yl}-urea] had a melting point of 127 to 129 °C. The IC50 in data set [1] (setting [4]) is 0.028 µM. The half-inhibitory concentration (IC50) in data set [1] (read-out: IC50 values against Aurora-B) is below 0.1 µM. In addition, the IC50 in data set [2] turned out to be 2.81 µM. For the same compound, the IC50 in data set [3] is above 100 µM.

For the compound `O=C(Nc1ccnc2cc(-c3ccccc3)cnc12)NC1CC1` [Compound 39, 1-Cyclopropyl-3-(7-phenyl-[1,5]naphthyridin-4-yl)-urea], the melting point lay in the range of 188 to 190 °C. Besides, the IC50 in data set [1] (setting [4]) amounted to 0.889 µM. Besides, in data set [2], the IC50 came out at 20.3 µM. Also, the concentration for half-maximal inhibition (IC50) in data set [3] was above 100 µM.

As to `O=C(Nc1ccnc2cc(-c3ccc4[nH]ccc4c3)cnc12)NC1CC1` [Compound 40, 1-Cyclopropyl-3-[7-(1H-indol-5-yl)-[1,5]naphthyridin-4-yl]-urea], the melting point is 214 to 215 °C. In addition, the half-inhibitory concentration (IC50) in data set [1] (setting [4]) is 2.12 µM. For the same compound, the 50% inhibitory concentration (IC50) in data set [2] is above 100 µM. In data set [3], the 50% inhibitory concentration (IC50) was above 100 µM.

These data come from US8461178B2, “Naphthyridine derivatives and the use thereof as kinase inhibitors” (Aeterna Zentaris GmbH, priority 2009, dated 2013).
